Measured values from patent US20170362184A1, “PRO-SURVIVAL COMPOUNDS” (University Court of The University of Glasgow, priority 2014, published 2017).

Legend:
[1] = test system: hPSC (hESC cell line H1 and NMF-iPS6); experiment: passive differentiation into three germ layers after 30 passages; type: cell-based, human; conditions: after 30 consecutive enzymatic passages
From the text: HPSC treated for 30 passages with SC332 or Y27632 were passively differentiated for 2 weeks in suspension culture, followed by 2 weeks adherent culture, fixed and stained for markers of the three germ layers. Control cells that had been mechanically passaged and unexposed to any survival compound were also differentiated and stained in the same way. PAX6 is stained in the left hand column, AFP in the centre column and SMA in the right hand column. All cells were co-stained with DAPI. Scale bar represents 100 μm.
The differentiation capacity of hPSC after treatment with SC332 was also assessed. HPSC (hESC cell line H1 and NMF-iPS6) that had been enzymatically passaged with either SC332 or Y27632 for 30 consecutive passages were passively differentiated alongside mechanically maintained cells using a mixture of embryoid body based suspension culture and adherent culture. Differentiated cells were subsequently fixed and stained for markers from each of the three germ layers. […] As expected, untreated mechanically passaged control cells, included as a positive control, were also able to differentiate into each of the three germ layers (FIG. 5).

hPSC (H1 hESC) = experiment: cytogenetic stability (karyotype) after 30 consecutive passages; type: cell-based, human; conditions: H1 hESC treated for 30 consecutive passages
From the text: In addition to this, long term exposure to compound SC332 had no detrimental effect on the karyotypic stability of hPSC (FIGS. 2 and 3).

[2] = test system: pMLC in iPSC (cell line NMF-iPS6); experiment: western blot of phosphorylated myosin light chain (pMLC) after dissociation; type: cell-based, human; conditions: 15 mins post-dissociation, compared with untreated cells
Protocol: Protein samples were taken from iPSC (cell line NMF-iPS6) that were treated with SC332, Y27632 or had no treatment (control) before being dissociated. Samples were harvested 15 mins, 30 mins, 45 mins, 1 hr, 2 hr and 4 hr post dissociation. Western blot analysis was performed. […] Data shown as mean±SEM, n=3.

hESC line H1 = experiment: cell survival 24 hrs post enzymatic passage; type: cell-based, human; conditions: enzymatically passaged, 24 hrs post passage, mean ±SEM, n=3
Protocol: (§1) Enzymatic passage of hPSC methodology 1. 24 hrs prior to passage (around 70-80% confluence), supply 1 well of near confluent hPSC with 2 ml StemPro supplemented with 30 μM SC332 (done during usual daily feed). 2. At point of passage, remove media and wash cells 1× in PBS (−/−). 3. Add 1.5 ml of TrypLE Select (1×) to well and return to incubator for 2-5 mins to dissociate to single cells. 4. Add 1.5 ml of StemPro to deactivate TrypLE Select and pipette gently using a 5 ml serological pipette (to dissociate any remaining clumps). 5. Transfer cells to 15 ml conical bottomed tube and centrifuge for 3 mins at 300 g. 6. Aspirate as much supernatant as possible and resuspend cell pellet by gently flicking. 7. Resuspend cells in PBS (−/−) and centrifuge again for 3 mins at 300 g. 8. Aspirate PBS (−/−) and resuspend cells in 1 ml of StemPro. Gently pipette using serological pipette. 9. Perform a cell count and replate hPSC at a density of 5×10^5 cells per well of a pre-coated 6 well plate. Top up to 2 mls total with StemPro supplemented with 30 μM SC332. Wells are pre-coated with 0.3 mg/ml fibronectin (recombinant vitronectin fragment can also be used). 10. Return cells to incubator and supply with fresh StemPro on a daily basis. 11. 24 hrs prior to subsequent passages (around 70-80% confluence), supply 1 well of PSC with 2 ml StemPro supplemented with 30 μM SC332 (done during usual daily feed). NB SC332 can be used transiently as described above or can be added to culture medium continuously (still at 30 μM).
(§2) Human pluripotent stem cells (hPSC) were either treated with SC332, Y27632, or left untreated, before being enzymatically passaged. […] In particular, the hESC lines H1, H9 and RC9 and the hiPSC NMF-iPSC6 had cell survival of 72% (±2.9), 73% (±2.8), 69% (±1.9) and 74% (±2.6) respectively when treated with SC332. […] Data shown is the mean survival ±SEM, n=3.

hESC line H9 = experiment: cell survival 24 hrs post enzymatic passage; type: cell-based, human; conditions: enzymatically passaged, 24 hrs post passage, mean ±SEM, n=3
Protocol: as §1, §2

hESC line RC9 = experiment: cell survival 24 hrs post enzymatic passage; type: cell-based, human; conditions: enzymatically passaged, 24 hrs post passage, mean ±SEM, n=3
Protocol: as §1, §2

hiPSC NMF-iPSC6 = experiment: cell survival 24 hrs post enzymatic passage; type: cell-based, human; conditions: hiPSC NMF-iPSC6, enzymatically passaged, 24 hrs post passage, mean ±SEM, n=3
Protocol: as §1, §2

ROCK2 = ROCK2 (Rattus norvegicus, UniProt Q62868); experiment: radioactive filter-binding kinase assay (33P-ATP); type: biochemical
Protocol: (§3) This screen utilises a radioactive filter-binding assay (33P-ATP) to assess the effect of compounds on kinase activity. Results confirmed that SC332 had no inhibitory effect on ROCK2 at a concentration of 10 μM (96% activity. SC332 also had very limited effect on the closely related PRK2, showing 76% and 98% activity when used at 10 μM and 30 μM respectively (FIG. 6).

PRK2 = PRK2 (Homo sapiens, UniProt Q16513); experiment: radioactive filter-binding kinase assay (33P-ATP); type: biochemical
Protocol: as §3

Sequence of PRK2 (Q16513 501-984 limits assumed, species assumed): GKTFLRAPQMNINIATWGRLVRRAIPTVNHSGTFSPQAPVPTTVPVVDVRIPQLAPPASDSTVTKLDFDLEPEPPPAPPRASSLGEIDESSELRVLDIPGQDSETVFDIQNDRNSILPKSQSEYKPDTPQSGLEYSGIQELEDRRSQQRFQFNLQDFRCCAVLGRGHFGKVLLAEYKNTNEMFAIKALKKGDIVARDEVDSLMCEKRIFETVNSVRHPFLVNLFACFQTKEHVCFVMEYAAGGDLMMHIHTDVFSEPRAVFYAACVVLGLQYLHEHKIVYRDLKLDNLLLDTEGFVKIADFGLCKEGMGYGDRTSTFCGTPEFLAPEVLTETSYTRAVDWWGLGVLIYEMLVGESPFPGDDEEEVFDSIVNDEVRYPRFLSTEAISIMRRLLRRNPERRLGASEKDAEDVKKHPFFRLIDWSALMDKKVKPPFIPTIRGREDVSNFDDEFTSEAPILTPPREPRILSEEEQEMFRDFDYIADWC
Sequence of ROCK2 (Q62868 2-543 limits assumed): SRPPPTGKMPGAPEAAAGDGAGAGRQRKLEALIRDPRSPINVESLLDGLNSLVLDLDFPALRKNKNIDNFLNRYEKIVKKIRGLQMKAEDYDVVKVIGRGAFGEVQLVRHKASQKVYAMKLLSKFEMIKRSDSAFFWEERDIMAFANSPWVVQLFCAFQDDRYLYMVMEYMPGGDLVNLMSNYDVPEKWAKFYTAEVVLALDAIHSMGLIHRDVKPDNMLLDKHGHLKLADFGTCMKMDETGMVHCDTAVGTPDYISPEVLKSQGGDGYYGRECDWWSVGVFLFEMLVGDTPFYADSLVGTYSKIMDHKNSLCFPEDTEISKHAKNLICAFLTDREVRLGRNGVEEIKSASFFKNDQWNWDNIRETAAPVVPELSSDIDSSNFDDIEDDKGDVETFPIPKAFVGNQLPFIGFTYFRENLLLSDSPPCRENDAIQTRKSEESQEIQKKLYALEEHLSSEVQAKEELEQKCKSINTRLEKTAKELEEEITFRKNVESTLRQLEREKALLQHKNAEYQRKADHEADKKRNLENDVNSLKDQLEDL

cytogenetic stability (karyotype) (hPSC (H1 hESC))	ROCK2 activity (ROCK2; 10 μM) [% activity]	inhibition of ROCK2 (in words) (ROCK2; 30 μM)	PRK2 activity (PRK2; 10 μM) [% activity]	PRK2 activity (PRK2; 30 μM) [% activity]	inhibition of PRK2 (in words) (PRK2; 30 μM)	SMILES	differentiation towards mesoderm (SMA), endoderm (AFP) or ectoderm (PAX6) [1]	levels of pMLC relative to α-tubulin [2]	cell survival (hESC line H1) [%]	cell survival (hESC line H9) [%]	cell survival (hESC line RC9) [%]	cell survival (hiPSC NMF-iPSC6) [%]
karyotypically normal (46, XY)	–	–	–	–	–	C[C@@H](N)[C@H]1CC[C@H](C(=O)Nc2ccncc2)CC1 [Y27632, reference compound]	did not block the differentiation	blocked the increase	72	73	71	74
karyotypically normal (46, XY)	96	did not inhibit	76	98	did not inhibit	Cc1cc(NC(=O)Cn2c(NCc3ccccc3)nc3ccccc32)no1 [SC332, 2-(2-(benzylamino)-1H-benzo[d]imidazol-1-yl)-N-(5-methylisoxazol-3-yl)acetamide]	did not block the differentiation	high levels of pMLC equivalent to those in untreated cells	72	73	69	74
